Test system: Pseudomonas
Assay: Inhibition of adhesion of Pseudomonas strains P1, P2, P3 on canine corneocytes
Format: cell-based
Details: monosaccharides at 0.05% and 0.1% in PBS, vs positive control without monosaccharides (100%)
Procedure: A study comparing the inhibition, by monosaccharides, of the adhesion of three different strains of Pseudomonas, P1, P2, P3, was conducted on canine corneocytes. The three monosaccharides studied are respectively D-galactose, D-mannose and L-rhamnose.
The three strains of Psedomonas were taken from dogs with infectious otitis. Corneocytes were taken from six different healthy dogs using D-squame™-brand adhesive pads, sold by the CuDerm™ Company.
Bacterial suspensions were produced, each containing one of the three strains P1, P2 or P3, and PBS (phosphate-buffered saline) with or without monosaccharides at two concentrations (0.05% and 0.1%). These suspensions were each placed on a corneocyte layer. These layers were then incubated in a humidity chamber. After incubation, the corneocytes were washed and stained. The adherent Pseudomonas were then quantified by computer-assisted image analysis.
The percentage of adherence of the strains in the presence of monosaccharides was then calculated with respect to the percentage of adherence of the strains without monosaccharides (positive control).
The adherence percentages were compared for the three strains P1 to P3 with respect to the positive control (100%).

Structure (SMILES)	mean inhibition percentage for the three Pseudomonas strains
O=C[C@H](O)[C@@H](O)[C@@H](O)[C@H](O)CO [D-galactose]	25.6%
C[C@H](O)[C@H](O)[C@@H](O)[C@@H](O)C=O [L-rhamnose]	30.8%
O=C[C@@H](O)[C@@H](O)[C@H](O)[C@H](O)CO [D-mannose]	19.4%

Reference: patent publication US20110212908A1, “TOPICAL COMPOSITIONS AND THE USE THEREOF” (priority 2005, published 2011)
